Measurements from publication PMC3026871 (Cancer chemotherapy and pharmacology, 2010).
Marks after values point to notes of the source that are not given here.

Legend:
[1] = system: dogs; conditions: the most sensitive species; cited from earlier work
[2] = Plasma pharmacokinetics in patients; conditions: for Cmin, Mean (SD) / concentration at 6 h: 6 hours after the second dose; for AUC(0-t) / Cmax / concentration at 24 h / Tmax / concentration at 6 h: plasma, oral; for concentration at 24 h / concentration at 6 h: Cmin; for concentration at 24 h: 24 hours after the daily dose
[3] = QID-7D 25 mg, Day 7, Dose 2, steady state, n=6
[4] = QID-7D 35 mg, Day 7, Dose 2, steady state, n=3
[5] = QID-7D 45 mg, Day 7, Dose 2, steady state, n=3
[6] = QID-7D 55 mg, Day 7, Dose 2, steady state, n=4
[7] = human, 5 mg, Mean (SD), QD-7D 5 mg, Day 7, steady state, n=4
[8] = human, 10 mg, Mean (SD), QD-7D 10 mg, Day 7, steady state, n=4
[9] = human, 20 mg, Mean (SD), QD-7D 20 mg, Day 7, steady state, n=3
[10] = human, 25 mg, Mean (SD), QID-7D 25 mg, Day 7, Dose 2, steady state, n=6
[11] = human, 30 mg, Mean (SD), QD-7D 30 mg, Day 7, steady state, n=6
[12] = human, 35 mg, Mean (SD), QID-7D 35 mg, Day 7, Dose 2, steady state, n=3
[13] = human, 40 mg, QD-7D 40 mg, Day 7, steady state, individual data, n=1
[14] = human, 45 mg, Mean (SD), QID-7D 45 mg, Day 7, Dose 2, steady state, n=3
[15] = human, 55 mg, Mean (SD), QID-7D 55 mg, Day 7, Dose 2, steady state, n=4
[16] = human, 55 mg, Mean (SD), QID/M-7D 55 mg, Day 7, Dose 2, steady state, n=3

O=C(O)c1ccc(Nc2ncc3c(n2)-c2ccc(Cl)cc2C(c2c(F)cccc2F)=NC3)cc1 [MLN8054]
highest non-severely toxic dose [1]: 20 mg/m^2/day | dose proportionality of AUC0-24 hr and Cmax ([2]; QD dosing): roughly dose-proportional | Peak-to-Trough Ratio (Cmax/Cmin) ([2]; QD dosing, all dose levels): approximately 5 | Geometric Mean Peak-to-Trough Ratio (Cmax/Cmin) ([2]; QD-7D 5 mg, Day 7, steady state, n=4): 4.99 | Geometric Mean Peak-to-Trough Ratio (Cmax/Cmin) ([2]; QD-7D 10 mg, Day 7, steady state, n=4): 5.10 | Geometric Mean Peak-to-Trough Ratio (Cmax/Cmin) ([2]; QD-7D 20 mg, Day 7, steady state, n=3): 5.09 | Geometric Mean Peak-to-Trough Ratio (Cmax/Cmin) ([2]; QD-7D 30 mg, Day 7, steady state, n=6): 4.72 | Peak-to-Trough Ratio (Cmax/Cmin) ([2]; QD-7D 40 mg, Day 7, steady state, individual data, n=1): 6.59 ^† | Geometric Mean Peak-to-Trough Ratio (Cmax/Cmin) [2, 3]: 1.58 | Cmin, Mean (SD) [2, 3]: 720 (359) nM | Geometric Mean Peak-to-Trough Ratio (Cmax/Cmin) [2, 4]: 1.32 | Cmin, Mean (SD) [2, 4]: 1464 (301) nM | Geometric Mean Peak-to-Trough Ratio (Cmax/Cmin) [2, 5]: 1.45 | Cmin, Mean (SD) [2, 5]: 1139 (803) nM | Geometric Mean Peak-to-Trough Ratio (Cmax/Cmin) [2, 6]: 1.44 | Cmin, Mean (SD) [2, 6]: 1802 (846) nM | Geometric Mean Peak-to-Trough Ratio (Cmax/Cmin) ([2]; QID/M-7D 55 mg, Day 7, Dose 2, steady state, n=3): 1.81 | Geometric Mean Peak-to-Trough Ratio (Cmax/Cmin) ([2]; QID/M-7D 60 mg, Day 7, Dose 2, steady state, n=6): 1.80 | Geometric Mean Peak-to-Trough Ratio (Cmax/Cmin) ([2]; QID/M-7D 70 mg, Day 7, Dose 2, steady state, n=3): 1.65 | Geometric Mean Peak-to-Trough Ratio (Cmax/Cmin) ([2]; QID/M-7D 80 mg, Day 7, Dose 2, steady state, n=3): 1.35 | Geometric Mean Peak-to-Trough Ratio (Cmax/Cmin) ([2]; QID/M-14D 60 mg, Day 14, Dose 2, steady state, n=3): 1.29 | Peak-to-Trough Ratio (Cmax/Cmin) ([2]; QID/M-21D 60 mg, Day 21, Dose 2, steady state, individual data, n=1): 1.59 ^† | MLN8054 concentrations between the second and third doses ([2]; QID/M-21D 60 mg, days 14 and 21, 1 patient): < 2000 nM | concentration at 7 day ([2]; human, in vivo, 60 mg): ~2000 nM | concentration at 14 day ([2]; human, in vivo, 60 mg): > 2000 nM | AUC(0-t) ([2]; human, 5 mg, AUC0–24, Mean (SD), QD-7D 5 mg, Day 7, steady state, n=4): 6.16 µM·h | Cmax [2, 7]: 521 nM | concentration at 24 h [2, 7]: 162 nM | Tmax [2, 7]: 1.7 h | AUC(0-t) ([2]; human, 10 mg, AUC0–24, Mean (SD), QD-7D 10 mg, Day 7, steady state, n=4): 7.53 µM·h | Cmax [2, 8]: 724 nM | concentration at 24 h [2, 8]: 154 nM | Tmax [2, 8]: 3.8 h | AUC(0-t) ([2]; human, 20 mg, AUC0–24, Mean (SD), QD-7D 20 mg, Day 7, steady state, n=3): 13.5 µM·h | Cmax [2, 9]: 1180 nM | concentration at 24 h [2, 9]: 240 nM | Tmax [2, 9]: 3.3 h | AUC(0-t) ([2]; human, 25 mg, AUC0–24, Mean (SD), QID-7D 25 mg, Day 7, Dose 2, steady state, n=6): 4.85 µM·h | Cmax [2, 10]: 1050 nM | concentration at 6 h [2, 10]: 720 nM | Tmax [2, 10]: 2.5 h | AUC(0-t) ([2]; human, 30 mg, AUC0–24, Mean (SD), QD-7D 30 mg, Day 7, steady state, n=6): 28.2 µM·h | Cmax [2, 11]: 2360 nM | concentration at 24 h [2, 11]: 912 nM | Tmax [2, 11]: 3 h | AUC(0-t) ([2]; human, 35 mg, AUC0–24, Mean (SD), QID-7D 35 mg, Day 7, Dose 2, steady state, n=3): 9.71 µM·h | Cmax [2, 12]: 1970 nM | concentration at 6 h [2, 12]: 1460 nM | Tmax [2, 12]: 1.5 h | AUC(0-t) ([2]; human, 40 mg, AUC0–24, QD-7D 40 mg, Day 7, steady state, individual data, n=1): 24.2 µM·h | Cmax [2, 13]: 3040 nM | concentration at 24 h [2, 13]: 461 nM | Tmax [2, 13]: 1 h | AUC(0-t) ([2]; human, 45 mg, AUC0–24, Mean (SD), QID-7D 45 mg, Day 7, Dose 2, steady state, n=3): 7.55 µM·h | Cmax [2, 14]: 1530 nM | concentration at 6 h [2, 14]: 1140 nM | Tmax [2, 14]: 0.8 h | AUC(0-t) ([2]; human, 55 mg, AUC0–24, Mean (SD), QID-7D 55 mg, Day 7, Dose 2, steady state, n=4): 12.5 µM·h | AUC(0-t) ([2]; human, 55 mg, AUC0–24, Mean (SD), QID/M-7D 55 mg, Day 7, Dose 2, steady state, n=3): 10.7 µM·h | Cmax [2, 15]: 2480 nM | Cmax [2, 16]: 2310 nM | concentration at 6 h [2, 15]: 1800 nM | concentration at 6 h [2, 16]: 1310 nM | Tmax [2, 15]: 1.2 h | Tmax [2, 16]: 1 h | AUC(0-t) ([2]; human, 60 mg, AUC0–24, Mean (SD), QID/M-7D 60 mg, Day 7, Dose 2, steady state, n=6): 8.38 µM·h | AUC(0-t) ([2]; human, 60 mg, AUC0–24, Mean (SD), QID/M-14D 60 mg, Day 14, Dose 2, steady state, n=3): 13.2 µM·h
